Results taken from PubChem BioAssay AID256 (DTP/NCI, 2004).
“And” between values parts separate entries of the source, which are not always exact repeats. Identical values can stand only once. Toxic doses and inconclusive results are not listed. Rule for the calls: active = survival T/C of 150% or more; inactive = T/C below 125% in these data.

Test system: CD2F1 mice, L1210 leukemia ip, survival T/C
Assay: NCI In Vivo Anticancer Drug Screen. Data for tumor model L1210 Leukemia (intraperitoneal) in CD2F1 (CDF1) mice
Conditions: higher = longer survival
Procedure, shortened: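 Ratio T/C, where T is the treated-group value and C the vehicle-dosed control value, from mice implanted with a transplantable tumor.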

[1] = endpoint: mean survival time, dose: 100.0 mg/kg/injection, schedule: Q04DX003 (ip), vehicle: saline
[2] = endpoint: mean survival time, dose: 200.0 mg/kg/injection, schedule: Q04DX003 (ip), vehicle: saline
[3] = endpoint: mean survival time, dose: 400.0 mg/kg/injection, schedule: Q04DX003 (ip), vehicle: saline
[4] = endpoint: mean survival time, dose: 25.0 mg/kg/injection, schedule: Q01DX009 (ip), vehicle: saline with Tween-80
[5] = endpoint: mean survival time, dose: 50.0 mg/kg/injection, schedule: Q01DX009 (ip), vehicle: saline with Tween-80
[6] = endpoint: mean survival time, dose: 100.0 mg/kg/injection, schedule: Q01DX009 (ip), vehicle: saline with Tween-80
[7] = endpoint: mean survival time, dose: 100.0 mg/kg/injection, schedule: Q04DX002 (ip), vehicle: saline with Tween-80
[8] = endpoint: mean survival time, dose: 100.0 mg/kg/injection, schedule: Q01DX001 (ip), vehicle: saline
[9] = endpoint: mean survival time, dose: 200.0 mg/kg/injection, schedule: Q01DX001 (ip), vehicle: saline
[10] = endpoint: mean survival time, dose: 400.0 mg/kg/injection, schedule: Q01DX001 (ip), vehicle: saline
[11] = endpoint: mean survival time, dose: 100.0 mg/kg/injection, schedule: Q04DX003 (ip), vehicle: saline with Tween-80
[12] = endpoint: mean survival time, dose: 200.0 mg/kg/injection, schedule: Q01DX009 (ip), vehicle: saline with Tween-80
[13] = endpoint: mean survival time, dose: 200.0 mg/kg/injection, schedule: Q04DX003 (ip), vehicle: saline with Tween-80
[14] = endpoint: mean survival time, dose: 400.0 mg/kg/injection, schedule: Q01DX009 (ip), vehicle: saline with Tween-80
[15] = endpoint: mean survival time, dose: 400.0 mg/kg/injection, schedule: Q04DX003 (ip), vehicle: saline with Tween-80
[16] = endpoint: mean survival time, dose: 200.0 mg/kg/injection, schedule: Q04DX002 (ip), vehicle: saline with Tween-80
[17] = endpoint: mean survival time, dose: 400.0 mg/kg/injection, schedule: Q04DX002 (ip), vehicle: saline with Tween-80

Measured: T/C

CCC(=O)c1ccc2c(c1)N(CCCN1CCN(CCO)CC1)c1ccccc1S2
inactive: endpoint: mean survival time, dose: 25.0 mg/kg/injection, schedule: Q04DX003 (ip), vehicle: Klucel (hydroxypropylcellulose) (HPC) 97 % of control | endpoint: mean survival time, dose: 100.0 mg/kg/injection, schedule: Q04DX003 (ip), vehicle: Klucel (hydroxypropylcellulose) (HPC) 116 % of control

O=C(O)c1ccc([As](=O)(O)O)cc1[N+](=O)[O-]
inactive: endpoint: mean survival time, dose: 50.0 mg/kg/injection, schedule: Q04DX003 (ip), vehicle: saline 105 % of control | [1] 97 % of control | [2] 95 % of control

CCOC(=O)/C=C(\C)N1CCCCC1
inactive: [1] 92 % of control | [2] 91 % of control | [3] 94 % of control

Nc1nc2c(ncn2C2OC(CO)C(O)C2O)c(=O)[n]1[Hg][c]1ccccc1 (stereo not drawn)
inactive: endpoint: median survival time, dose: 0.79 mg/kg/injection, schedule: Q01DX005 (ip), vehicle: saline 103 % of control | endpoint: median survival time, dose: 1.56 mg/kg/injection, schedule: Q01DX005 (ip), vehicle: saline 100 % of control | endpoint: median survival time, dose: 3.12 mg/kg/injection, schedule: Q01DX005 (ip), vehicle: saline 100 % of control | endpoint: median survival time, dose: 6.25 mg/kg/injection, schedule: Q01DX005 (ip), vehicle: saline 100 % of control | endpoint: median survival time, dose: 12.5 mg/kg/injection, schedule: Q01DX005 (ip), vehicle: saline 108 % of control

COc1cc2c(cc1OC)C(CC(C)C)=[N+](C)CC2
inactive: [4] 103 % of control | [5] 98 % of control | [6] 109 % of control | [7] 92 % of control

O=[N+]([O-])c1cccnc1SSc1ncccc1[N+](=O)[O-]
inactive: [8] 90 % of control | [1] 92 % of control | [9] 90 % of control | [2] 102 % of control | [10] 90 % of control | [3] 92 % of control

N#CC1C(=N)Cc2ccccc2-c2ccccc21 (stereo not drawn)
inactive: [6] 96 % of control | [11] 108 % of control | [12] 93 % of control | [13] 101 % of control | [14] 106 % of control | [15] 101 % of control

CCOC(C=O)OCC
inactive: [8] 103 % of control | [9] 97 % of control | [10] 103 % of control

O=c1c([N+](=O)[O-])cn(O)cc1[N+](=O)[O-]
inactive: endpoint: mean survival time, dose: 100.0 mg/kg/injection, schedule: Q01DX001 (ip), vehicle: alkali diluted with saline 100 % of control | endpoint: mean survival time, dose: 200.0 mg/kg/injection, schedule: Q01DX001 (ip), vehicle: alkali diluted with saline 94 % of control | endpoint: mean survival time, dose: 400.0 mg/kg/injection, schedule: Q01DX001 (ip), vehicle: alkali diluted with saline 100 % of control

COCC1OC2OC3C(COC)OC(OC4C(COC)OC(OC5C(COC)OC(OC6C(COC)OC(OC7C(COC)OC(OC8C(COC)OC(OC1C(O)C2O)C(O)C8O)C(O)C7O)C(O)C6O)C(O)C5O)C(O)C4O)C(O)C3O (stereo not drawn) (tested in a mixture with another compound)
inactive: endpoint: mean survival time, dose: 25.0 mg/kg/injection, schedule: Q01DX009 (ip), vehicle: Klucel (hydroxypropylcellulose) (HPC) 98 % of control | endpoint: mean survival time, dose: 50.0 mg/kg/injection, schedule: Q01DX009 (ip), vehicle: Klucel (hydroxypropylcellulose) (HPC) 98 % of control | endpoint: mean survival time, dose: 100.0 mg/kg/injection, schedule: Q01DX009 (ip), vehicle: Klucel (hydroxypropylcellulose) (HPC) 94 % of control | endpoint: mean survival time, dose: 200.0 mg/kg/injection, schedule: Q01DX009 (ip), vehicle: Klucel (hydroxypropylcellulose) (HPC) 96 % of control | endpoint: mean survival time, dose: 400.0 mg/kg/injection, schedule: Q01DX009 (ip), vehicle: Klucel (hydroxypropylcellulose) (HPC) 93 % of control

CCOC(=O)C(=C=C(C(=O)OCC)C(=O)OCC)C(=O)OCC
inactive: endpoint: mean survival time, dose: 25.0 mg/kg/injection, schedule: Q01DX005 (ip), vehicle: saline with Tween-80 97 % of control | [4] 95 % of control | endpoint: mean survival time, dose: 25.0 mg/kg/injection, schedule: Q04DX002 (ip), vehicle: saline with Tween-80 103 % of control | endpoint: mean survival time, dose: 50.0 mg/kg/injection, schedule: Q01DX005 (ip), vehicle: saline with Tween-80 92 % of control and 97 % of control | [5] 98 % of control | endpoint: mean survival time, dose: 50.0 mg/kg/injection, schedule: Q04DX002 (ip), vehicle: saline with Tween-80 88 % of control and 106 % of control | endpoint: mean survival time, dose: 100.0 mg/kg/injection, schedule: Q01DX005 (ip), vehicle: saline with Tween-80 94 % of control | [6] 95 % of control | [7] 103 % of control and 106 % of control | endpoint: mean survival time, dose: 200.0 mg/kg/injection, schedule: Q01DX005 (ip), vehicle: saline with Tween-80 86 % of control and 94 % of control | [12] 91 % of control | [16] 95 % of control and 98 % of control | [17] 98 % of control

NC(=S)N/N=C\c1ncccc1O
inactive: endpoint: mean survival time, dose: 25.0 mg/kg/injection, schedule: Q03HX024 (ip), vehicle: saline 120 % of control

N#CSCCSC#N
inactive: endpoint: mean survival time, dose: 2.5 mg/kg/injection, schedule: Q04DX003 (ip), vehicle: Klucel (hydroxypropylcellulose) (HPC) 102 % of control | endpoint: mean survival time, dose: 5.0 mg/kg/injection, schedule: Q04DX003 (ip), vehicle: Klucel (hydroxypropylcellulose) (HPC) 120 % of control | endpoint: mean survival time, dose: 10.0 mg/kg/injection, schedule: Q04DX003 (ip), vehicle: Klucel (hydroxypropylcellulose) (HPC) 105 % of control

CC(=O)N1C2=CCCC3CCCCC23c2ccccc21 (stereo not drawn)
inactive: [6] 103 % of control | [11] 96 % of control | [12] 101 % of control | [13] 92 % of control | [14] 98 % of control | [15] 101 % of control

CN(C)C(=O)Sc1ccc(S(=O)(=O)F)c(Cl)c1Cl
inactive: [7] 100 % of control | [16] 100 % of control | [17] 103 % of control

COc1cccc(C2NC(=O)c3c(n[nH]c3N)S2)c1O (stereo not drawn)
inactive: endpoint: median survival time, dose: 12.5 mg/kg/injection, schedule: Q01DX009 (ip), vehicle: saline with Tween-80 101 % of control | endpoint: median survival time, dose: 25.0 mg/kg/injection, schedule: Q01DX009 (ip), vehicle: saline with Tween-80 101 % of control | endpoint: median survival time, dose: 50.0 mg/kg/injection, schedule: Q01DX009 (ip), vehicle: saline with Tween-80 102 % of control | endpoint: median survival time, dose: 100.0 mg/kg/injection, schedule: Q01DX009 (ip), vehicle: saline with Tween-80 98 % of control | endpoint: median survival time, dose: 200.0 mg/kg/injection, schedule: Q01DX009 (ip), vehicle: saline with Tween-80 97 % of control | endpoint: median survival time, dose: 400.0 mg/kg/injection, schedule: Q01DX009 (ip), vehicle: saline with Tween-80 93 % of control

CC(CCl)C(C#N)(c1ccccc1)c1ccccc1 (stereo not drawn)
inactive: [5] 92 % of control | [6] 95 % of control | [11] 101 % of control | [12] 95 % of control | [13] 101 % of control

OC(Cc1ccccn1)c1ccccc1 (stereo not drawn)
inactive: [11] 95 % of control | [13] 101 % of control | [15] 98 % of control

CC1=C(c2ccccc2)C(c2ccccc2)c2ccccc21 (stereo not drawn)
inactive: endpoint: mean survival time, dose: 100.0 mg/kg/injection, schedule: Q01DX001 (ip), vehicle: saline with Tween-80 94 % of control | endpoint: mean survival time, dose: 200.0 mg/kg/injection, schedule: Q01DX001 (ip), vehicle: saline with Tween-80 93 % of control | endpoint: mean survival time, dose: 400.0 mg/kg/injection, schedule: Q01DX001 (ip), vehicle: saline with Tween-80 92 % of control
